In brackets after ≈: the same amount, converted by molar mass. Blank lines part the entries; values can stand above or below the molecule they belong to.
What was measured:
[1] = Oral bioavailability in CD rat at 50 mg/kg administered daily for 14 days; assay type: ADME, organism-based; settings: in vivo, time 14 day
MDA-MB-468 = test: Antiproliferative activity against human MDA-MB-468 cells assessed as inhibition of cell growth by MTT assay; assay type: functional, cell-based
[2] = Cytotoxicity against human MCF-10A cells assessed as inhibition of cell growth by MTT assay; assay type: toxicity, cell-based
Sulfotransferase 1A1 = Sulfotransferase 1A1 (Rattus norvegicus, UniProt P17988); test: Inhibition of rat liver SULT1A1-mediated oestradiol sulfonation incubated for 20 mins
Sequence of Sulfotransferase 1A1 (P17988 whole entry): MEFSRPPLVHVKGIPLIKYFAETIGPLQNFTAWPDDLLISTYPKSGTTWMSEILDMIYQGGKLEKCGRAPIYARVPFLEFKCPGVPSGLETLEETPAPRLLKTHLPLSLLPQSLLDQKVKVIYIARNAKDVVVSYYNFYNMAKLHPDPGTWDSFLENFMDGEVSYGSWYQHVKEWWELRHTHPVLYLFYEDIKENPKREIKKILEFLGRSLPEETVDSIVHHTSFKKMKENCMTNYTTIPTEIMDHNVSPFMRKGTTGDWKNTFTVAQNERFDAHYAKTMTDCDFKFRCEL

Sulfotransferase 2A1 = biological target: T1, Sulfotransferase 2A1 (Rattus norvegicus, UniProt P15709); test: Inhibition of rat SULT2A1-mediated dehydroepiandrosterone sulfonation incubated for 20 mins
T1 sequence (P15709 whole entry): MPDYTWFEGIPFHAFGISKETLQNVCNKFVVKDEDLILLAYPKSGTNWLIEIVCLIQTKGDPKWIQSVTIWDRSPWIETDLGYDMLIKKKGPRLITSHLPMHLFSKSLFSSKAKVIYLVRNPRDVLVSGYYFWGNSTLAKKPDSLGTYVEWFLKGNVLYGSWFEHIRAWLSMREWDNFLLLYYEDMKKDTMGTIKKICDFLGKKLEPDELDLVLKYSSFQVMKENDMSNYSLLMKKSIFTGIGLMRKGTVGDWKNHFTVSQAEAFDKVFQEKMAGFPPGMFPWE

Estrogen receptor = biological target: T2, Estrogen receptor (Bos taurus, UniProt P49884); test: Displacement of [3H]-17beta-estradiol from bovine uterine estrogen receptor by competitive binding assay
T2 sequence (P49884 whole entry): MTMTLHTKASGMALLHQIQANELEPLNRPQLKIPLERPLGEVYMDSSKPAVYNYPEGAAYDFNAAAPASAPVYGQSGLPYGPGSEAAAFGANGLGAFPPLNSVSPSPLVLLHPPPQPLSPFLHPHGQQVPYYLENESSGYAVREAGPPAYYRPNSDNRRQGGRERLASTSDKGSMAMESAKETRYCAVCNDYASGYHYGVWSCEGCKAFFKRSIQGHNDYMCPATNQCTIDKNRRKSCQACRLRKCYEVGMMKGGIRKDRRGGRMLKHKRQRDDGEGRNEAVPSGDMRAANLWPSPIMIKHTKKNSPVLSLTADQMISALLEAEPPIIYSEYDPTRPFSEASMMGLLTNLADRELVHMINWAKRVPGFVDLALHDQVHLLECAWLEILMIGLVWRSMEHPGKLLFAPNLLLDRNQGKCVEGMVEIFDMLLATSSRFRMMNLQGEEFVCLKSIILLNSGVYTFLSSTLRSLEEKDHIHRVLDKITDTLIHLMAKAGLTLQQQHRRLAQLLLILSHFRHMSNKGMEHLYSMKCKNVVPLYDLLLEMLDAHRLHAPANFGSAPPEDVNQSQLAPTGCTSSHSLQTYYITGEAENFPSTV

MCF7 [3] = test: Antiproliferative activity against human MCF7 cells assessed as inhibition of cell growth incubated for 6 days by SRB assay; assay type: functional, cell-based; settings: MCF7, 144 h
[4] = Oral bioavailability in CD rat at 168 mg/kg administered daily for 14 days; assay type: ADME, organism-based; settings: in vivo, time 14 day
MCF7 [5] = test: Antiproliferative activity against human MCF7 cells assessed as inhibition of cell growth incubated for 3 days by beta scintillation counting based [3H]-thymidine incorporation assay; assay type: functional
MCF7 [6] = test: Antiproliferative activity against human MCF7 cells assessed as inhibition of cell growth incubated for 2 days by SRB assay; assay type: functional, cell-based; settings: MCF7, 48 h
MCF7 [7] = test: Antiproliferative activity against human MCF7 cells assessed as inhibition of cell growth incubated for 4 days by SRB assay; assay type: functional, cell-based; settings: MCF7, 96 h
[8] = Cytotoxicity against human MCF-10A cells assessed as inhibition of cell growth incubated for 24 to 96 hrs by MTT assay; assay type: toxicity, cell-based
MDA-MB-231 = test: Antiproliferative activity against human MDA-MB-231 cells assessed as inhibition of cell growth incubated for 24 to 96 hrs by MTT assay; assay type: functional, cell-based
Steryl-sulfatase [9] = biological target: T3, Steryl-sulfatase (Homo sapiens, UniProt P08842); test: Inhibition of estrone sulfatase in human MCF7 cell microsomes; set-up: species or system Microsome
T3 sequence (P08842 whole entry): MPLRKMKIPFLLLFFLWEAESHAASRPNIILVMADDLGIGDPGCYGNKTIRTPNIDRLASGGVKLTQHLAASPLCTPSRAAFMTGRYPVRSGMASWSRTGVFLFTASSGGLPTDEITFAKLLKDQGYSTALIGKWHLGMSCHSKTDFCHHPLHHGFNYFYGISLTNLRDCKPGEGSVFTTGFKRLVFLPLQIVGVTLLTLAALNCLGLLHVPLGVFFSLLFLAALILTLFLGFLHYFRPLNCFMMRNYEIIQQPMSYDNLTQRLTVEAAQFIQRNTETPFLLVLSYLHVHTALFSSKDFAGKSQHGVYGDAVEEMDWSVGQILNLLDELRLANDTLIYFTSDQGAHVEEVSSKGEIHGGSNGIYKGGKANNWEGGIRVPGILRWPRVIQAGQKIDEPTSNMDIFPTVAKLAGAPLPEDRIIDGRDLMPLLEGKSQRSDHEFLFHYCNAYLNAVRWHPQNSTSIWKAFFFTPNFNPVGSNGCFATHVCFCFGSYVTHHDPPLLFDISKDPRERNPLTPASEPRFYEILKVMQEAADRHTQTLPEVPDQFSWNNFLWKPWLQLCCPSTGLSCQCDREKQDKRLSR

Steryl-sulfatase [10] = biological target: T4, Steryl-sulfatase (Rattus norvegicus, UniProt P15589); test: Inhibition of estrone sulfatase in homogeneous rat mammary tumors; assay type: tissue-based, Tumor
T4 sequence (P15589 whole entry): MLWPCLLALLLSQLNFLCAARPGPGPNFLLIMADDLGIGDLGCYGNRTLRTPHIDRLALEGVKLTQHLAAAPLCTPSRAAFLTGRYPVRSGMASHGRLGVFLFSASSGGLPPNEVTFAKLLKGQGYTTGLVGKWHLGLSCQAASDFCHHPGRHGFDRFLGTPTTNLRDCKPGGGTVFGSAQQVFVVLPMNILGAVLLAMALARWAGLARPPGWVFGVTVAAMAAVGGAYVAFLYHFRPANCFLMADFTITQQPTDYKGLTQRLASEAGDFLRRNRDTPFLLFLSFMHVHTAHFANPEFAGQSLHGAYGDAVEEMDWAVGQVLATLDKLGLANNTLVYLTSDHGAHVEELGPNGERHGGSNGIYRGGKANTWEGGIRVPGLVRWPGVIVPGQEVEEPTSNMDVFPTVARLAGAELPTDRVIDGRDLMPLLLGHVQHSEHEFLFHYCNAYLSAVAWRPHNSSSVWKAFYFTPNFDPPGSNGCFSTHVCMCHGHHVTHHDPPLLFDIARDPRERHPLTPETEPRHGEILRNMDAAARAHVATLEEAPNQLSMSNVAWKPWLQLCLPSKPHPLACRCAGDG

MCF7 [11] = test: Antiproliferative activity against human MCF7 cells assessed as inhibition of cell growth incubated for 0 to 5 days by MTT assay; assay type: functional, cell-based
MCF7 [12] = test: Antiproliferative activity against human MCF7 cells assessed as inhibition of cell growth incubated for 2 days by WST-1 assay; assay type: functional, cell-based; settings: MCF7, 48 h
MCF7 [13] = test: Inhibition of DNA synthesis in human MCF7 cells incubated for 4 days by BrdU incorporation assay; assay type: functional, cell-based; settings: MCF7, 96 h

Compound: C=C[C@H](/C=C\c1ccc(O)cc1)c1ccc(O)cc1 [NYASOL]
IC50 (Estrogen receptor): 0.4 µM

Compound: O=c1c(O)c(-c2ccc(O)c(O)c2)oc2cc(O)cc(O)c12 [QUERCETIN]
IC50 (MCF7 [3]): 5 µM | IC50 (Sulfotransferase 1A1): 0.29 µM | IC50 (Sulfotransferase 2A1): 34 µM

Compound: O=c1cc(-c2ccccc2)oc2ccccc12 [FLAVONE]
IC50 (MCF7 [3]): 0.3 µM

Compound: COc1cc(O)c(CC=C(C)C)c2c1C(=O)CC(c1ccc(O)cc1)O2 (centres undefined) [ISOXANTHOHUMOL]
IC50 (MCF7 [6]): 15.3 µM | IC50 (MCF7 [7]): 4.69 µM

Compound: COc1ccc(-c2cc(=O)c3c(OC)c(OC)c(OC)cc3o2)cc1OC [SINENSETIN]
IC50 (MDA-MB-468): 0.2 µM | IC50 [2]: 65 µM

Compound: COc1cc(O)c(CC=C(C)C)c(O)c1C(=O)/C=C/c1ccc(O)cc1 [XANTHOHUMOL]
IC50 (MCF7 [6]): 13.3 µM | IC50 (MCF7 [7]): 3.47 µM

Compound: O=c1c(O)c(-c2ccccc2)oc2cc(O)cc(O)c12 [GALANGIN]
IC50 (MCF7 [5]): 4.2 µg/mL (≈ 15.5 µM)

Compound: COc1cc2c(c(O)c1C(=O)/C=C/c1ccc(O)cc1)C=CC(C)(C)O2 [XANTHOHUMOL C]
IC50 (MCF7 [6]): 15.7 µM | IC50 (MCF7 [7]): 6.87 µM

Compound: Oc1ccc(C2COc3cc(O)ccc3C2)cc1 (centres undefined)
IC50 (MCF7 [3]): 1 µM

Compound: C=C[C@@H](/C=C\c1ccc(O)cc1)c1ccc(O)cc1
IC50 (Estrogen receptor): 0.06 µM

Compound: COc1ccc(-c2coc3cc(O)cc(O)c3c2=O)cc1 [BIOCHANIN]
IC50 (MCF7 [12]): 40 µg/mL (≈ 141 µM) | IC50 (MCF7 [3]): 10 µM | IC50 (MCF7 [13]): 40 µg/mL (≈ 141 µM)

Compound: O=c1cc(-c2ccc(O)c(O)c2)oc2cc(O)cc(O)c12 [LUTEOLIN]
IC50 (MCF7 [3]): 5 µM

Compound: O=C1C[C@@H](c2ccc(O)cc2)Oc2cc(O)cc(O)c21 [NARINGENIN]
IC50 (MCF7 [3]): 0.3 µM

Now from value to molecule, other results behind:

bioavailability [1]: 20%
Compound: Oc1ccc(/C=C/c2cc(O)cc(O)c2)cc1 [RESVERATROL]

IC50 (MDA-MB-468): 13 µM
Compound: O=C(O)[C@H]1O[C@@H](Oc2cc(O)c3c(=O)cc(-c4ccc(O)cc4)oc3c2)[C@H](O)[C@@H](O)[C@@H]1O
IC50 [2]: 42 µM

IC50 (Sulfotransferase 1A1): 0.29 µM | IC50 (Sulfotransferase 2A1): 34 µM
Compound: O=c1c(-c2ccc(O)cc2)coc2cc(O)ccc12 [DAIDZEIN]

bioavailability [4]: 80%
Compound: COc1cc(/C=C/c2ccc(O)cc2)cc(OC)c1 [PTEROSTILBENE]

IC50 (MCF7 [5]): 5.3 µg/mL (≈ 19.6 µM)
Compound: O=c1cc(-c2ccccc2)oc2cc(O)c(O)c(O)c12 [BAICALEIN]

IC50 (MCF7 [3]): 7 µM
Compound: O=C(CCc1ccc(O)cc1)c1c(O)cc(O)cc1O [PHLORETIN]

IC50 (MDA-MB-231): 25 µM
Compound: O=C(/C=C/c1ccc(O)cc1)c1ccc(O)cc1O [ISOLIQUIRITIGENIN]
IC50 [8]: 25 µM

IC50 (Steryl-sulfatase [9]): 0.263 µM | IC50 (Steryl-sulfatase [10]): 0.131 µM
Compound: C[C@H]1[C@H](C)CC[C@]2(C(=O)O)CC[C@]3(C)C(=CC[C@@H]4[C@@]5(C)CC[C@H](O)C(C)(C)[C@@H]5CC[C@]43C)[C@H]12 [URSOLIC ACID]

IC50 (MCF7 [3]): 0.04 µM | IC50 (MCF7 [11]): 50 µM
Compound: O=c1oc2cc(O)ccc2c2oc3cc(O)ccc3c12 [COUMESTROL]

IC50 (MDA-MB-468): 1.6 µM
Compound: COc1cc(O)c2c(=O)cc(-c3ccc(O)cc3)oc2c1 [GENKWANIN]
IC50 [2]: 75 µM

IC50 (MCF7 [3]): 0.04 µM
Compound: C#C[C@]1(O)CC[C@H]2[C@@H]3CCc4cc(OC)ccc4[C@H]3CC[C@@]21C [MESTRANOL]

IC50 (MCF7 [3]): 50 µM | IC50 (Sulfotransferase 1A1): 0.29 µM | IC50 (Sulfotransferase 2A1): 34 µM
Compound: O=c1c(O)c(-c2ccc(O)cc2)oc2cc(O)cc(O)c12 [KAEMPFEROL]

IC50 (MCF7 [3]): 1 µM
Compound: O=c1cc(-c2ccc(O)cc2)oc2cc(O)cc(O)c12 [APIGENIN]

IC50 (Sulfotransferase 1A1): 0.29 µM | IC50 (Sulfotransferase 2A1): 34 µM
Compound: O=c1c(-c2ccc(O)cc2)coc2cc(O)cc(O)c12 [GENISTEIN]
